# Measured values from PubChem BioAssay (NCI).
# Where “and” joins values, the source holds several entries; their conditions need not be identical. Equal values may be shown once.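 Tested at 5 concentrations; 48 h exposure; 96-well plates; endpoints linearly interpolated, else capped at highest concentration. The concentration for 50% growth inhibition is given as GI50. Definition used: TGI = concentration required for complete inhibition of growth.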
# Tested on: MDA-MB-468 breast
# Assay: inhibition of tumour cell growth, NCI panel, 48 h
SMILES,GI50,TGI
O=C(Nc1cccc2cccnc12)c1ccc(N2C(=O)[C@@H]3[C@H](C2=O)[C@@H]2C=C[C@H]3C2)cc1,14.2 µM,81.4 µM
Cc1ccccc1-n1c(/C=C\c2ccccn2)nc2ccccc2c1=O,3.61 µM,32.2 µM
CN(Cc1ccccc1)S(=O)(=O)/N=C1\NC(=O)NC1=C(Cl)Cl,0.427 µM,12.8 µM
CN1CCN(Cc2ccc(NC(=O)c3[nH]ncc3Nc3ncnc4sccc34)cc2)CC1,0.38 µM,2.56 µM
COc1cccc2c1cc([N+](=O)[O-])c1c(C(=O)O)cc3c(c12)OCO3,8.57 µM,26.1 µM
COc1ccc(C2C(c3ccccc3)C(=O)N2c2cc(OC)c(OC)c(OC)c2)cc1I (stereo not given),0.373 µM,> 100 µM
Cc1ccc(S(=O)(=O)NC(CCC(=O)Nc2ccccc2)C(=O)Nc2ccccc2)cc1 (stereo not given),0.289 µM,1.13 µM
COc1ccc(NC(=O)c2sc3nc(C)c(C(O)c4ccc(OC)cc4)cc3c2N)cc1 (stereo not given),0.145 µM,1.61 µM
COc1cc(-c2nn(C(=O)NS(=O)(=O)c3ccc(C)cc3)cc2-c2ccncc2)ccc1Cl,2.91 µM,19.8 µM
O=C1/C(=C/c2ccc([N+](=O)[O-])s2)Oc2ccccc21,0.39 µM,2.17 µM
O=C(O)c1ccc(-c2ccc(C(=O)O)cc2I)c(I)c1,> 100 µM,> 100 µM
O=C1C=CN(C2OC(CO)C(O)C2O)C(=O)C1 (stereo not given),> 2500 µM,> 2500 µM
CCCCCCNC(=O)Oc1ccc(/C(=C(\C)c2ccccc2)c2ccc(OCCN3CCCCC3)cc2)cc1,1.74 µM,5.17 µM
NC(N)=N/N=C/c1cccc(Cl)c1Cl,1.52 µM,3.24 µM
CS(=O)c1ccc(-c2nc(-c3ccc(F)cc3)c(-c3ccncc3)[nH]2)cc1 (stereo not given),13.4 µM,> 60.6 µM
CCCC(=O)NC(c1ccc2c(c1)OCO2)c1ccc2cccnc2c1O (stereo not given),0.388 µM,2.53 µM
COc1cc(-c2nc(SCC(=O)Nc3ccc(C(C)=O)cc3)[nH]c(=O)c2C#N)cc(OC)c1OC,25.4 µM,> 100 µM
C[C@@]1(c2ncncc2F)NC(=O)c2cc(-c3cn[nH]c3)ccc21,21.6 µM,51.5 µM
CN(C)CCOc1nc2c3cccnc3cc(-c3cccc(Cl)c3)c2c2ncccc12,1.43 µM,2.86 µM
O=C(CC1(O)C(=O)Nc2ccc(Br)cc21)c1ccc(C(=O)NCC2CCC3(CC2)OOC2(CCCCC2)OO3)cc1 (stereo not given),3.13 µM,20.3 µM
Oc1ccc(Br)cc1/C=N/NC(=S)NC12CC3CC(CC(C3)C1)C2,1.8 µM,4.77 µM
N=C(N)c1ccc(-c2ccc(-c3ccc(Cl)cn3)s2)cc1,1.6 µM,3.41 µM
CC(F)(F)c1cc(F)ccc1-c1sc2cc(O)ccc2c1Oc1ccc(/C=C/C(=O)O)cc1,5.94 µM,43.4 µM
CCCCN(CCCC)CC(C)(C)C(O)c1ccc(OC)c2ccccc12 (stereo not given),1.56 µM,3.97 µM

SMILES,GI50,TGI
CCCC[P+](c1ccccc1)(c1ccccc1)c1ccccc1,0.219 µM,2.37 µM
O=C(NCCCNC(=O)OCc1ccc2c(Br)cc(Br)c(O)c2n1)OCc1ccc2c(Br)cc(Br)c(O)c2n1,> 100 µM,> 100 µM
COC(=O)c1c2c(c(C)[n+]([O-])c1C)C(=O)C(NCc1cccc(OC)c1)=CC2=O,1.52 µM,3.84 µM
CC[C@H](Nc1nc(N)nc(N)c1Cl)c1nc2cccc(NCc3ccc(C(=O)NO)cc3)c2c(=O)n1-c1ccccc1,1.5 µM,3.42 µM
BrC(Br)(Br)c1cnc2ccccc2n1,1.15 µM,2.76 µM
CCCCCC(=O)OCC(=O)O[C@@H]1C[C@]2(C(C)C)O[C@@]1(C)[C@@H]1CC[C@@H](C)[C@H]1[C@@H]2OC(=O)/C=C/c1ccccc1,27 µM,> 76.9 µM
COc1cnc2c(c1)C(=O)c1c-2n(CCCN2CCNCC2)c(=O)c2cc(Cl)ccc12,0.552 µM,2.2 µM
Oc1ccc(/C=N/Nc2nc3ccccc3s2)c(O)c1,2.08 µM,8.4 µM
CC[C@@H](C)[C@H]([C@H](CC(=O)N1CCC[C@@H]1[C@@H](OC)[C@H](C)C(=O)N[C@H](Cc1ccccc1)c1nccs1)OC)N(C)C(=O)[C@H](NC(=O)[C@@H](C(C)C)N(C)C)C(C)C,,67.2 µM
Cc1[nH]nc2c1N=C(c1ccccc1F)c1cc(C#N)ccc1N2,0.0932 µM,7.2 µM
CCOC(=O)N1C/C(=C/c2ccc(OC)cc2)C(=O)/C(=C/c2ccc(OC)cc2)C1,1.54 µM,4.04 µM
CN(C)CCOC1(Cc2ccc(Cl)cc2Cl)CCC(C(C)(C)C)CC1 (stereo not given),1.78 µM and 1.77 µM,3.47 µM and 3.49 µM
COc1ccccc1CNC(=O)C1c2ccccc2C(=O)N(CC(C)C)C1c1cccs1 (stereo not given),12 µM,60.5 µM
COC(=O)[C@@H](Cc1c[nH]c2ccccc12)NC(=O)/C=C/c1ccccc1,2.57 µM,25.9 µM
COc1ccc2[nH]c(-c3cccc(N(C)C)c3)cc(=O)c2c1,13.3 µM,> 100 µM
COc1cc(C2CC(c3ccc4c(c3)OCO4)=NN2C(C)=O)cc(OC)c1OC (stereo not given),0.289 µM,1.71 µM
COc1cc2nc(-c3ccc(-n4cncc4-c4ccc(N)cc4)cc3)sc2c(OC)c1OC,1.82 µM,4.47 µM
CCCC1CCC(O)(C(C)(O)C(=O)NC2C(=O)N3NCCCC3C(=O)N(O)C(C)C(=O)N3NCCCC3C(=O)N3NCC(O)CC3C(=O)NC(C)C(=O)OC2C(C)C)OC1CC (stereo not given),> 25 µM,> 25 µM
C=CC[Se]C(=O)Cc1c(C)n(C(=O)c2ccc(Cl)cc2)c2ccc(OC)cc12,1.87 µM,3.74 µM
CCn1c(-c2nonc2N)nc2c(C#CC(C)(C)O)nc(O[C@@H](CN)c3ccccc3)cc21,0.0173 µM,0.435 µM
COc1cccc(Cn2cc3c(c2)-c2oncc2CC3)c1,0.196 µM,0.582 µM
CC(C)c1cc(CNc2nc(Nc3cc(C4CC4)[nH]n3)cc(N3CCN(C)CC3)n2)on1,1.3 µM,5.5 µM and 2.2 µM
O=C(NCCN1CCOCC1)Nc1ccc(-c2cc3c(Nc4ccc(Oc5cccc(C(F)(F)F)c5)c(Cl)c4)ncnc3s2)cc1,1 µM,2.5 µM
COc1ccc(NC(=O)Nc2ccc(Nc3nc(C)cc(Nc4ccc(C)cc4)n3)cc2)cc1,1.58 µM,3.1 µM
